Results: paper PMC9234021 (Cell Reports, 2022)
Where two headings read alike, the source gives them in different places. No end group written: not given here.

Experiments:
BET proteins = settings: cited from earlier work
A549 cells = assay: qRT-PCR of poly; format: cell-based
Calu3 cells [1] = format: cell-based
Calu3 cells [2] = assay: Cell viability; format: cell-based; settings: Calu3, 500 nM, 48 hours, CellTiter-Glo, relative to DMSO
A549-ACE2 cells = assay: Cell viability; format: cell-based; settings: A549-ACE2, 500 nM, 48 hours, CellTiter-Glo, relative to DMSO
[3] = system: lungs of SARS-CoV-2 infected mice; set-up: species or system K18-hACE2 C57BL/6J mice; settings: mouse, in vivo
SARS-CoV-2 [4] = format: in vivo, K18-hACE2 C57BL/6J mice; settings: JQ1 50 mg/kg i.p. or ABBV-744 20 mg/kg oral once daily, n = 5 per group
influenza A = settings: cited from earlier work
SARS-CoV-2 [5] = system: SARS-CoV-2; set-up: species or system K18-hACE2 C57BL/6J mice; settings: mouse, in vivo
[6] = identical treatment with JQ1 or ABBV-744, H&E
[7] = system: SARS-CoV-2 nucleocapsid (N) protein; format: in vivo, K18-hACE2 C57BL/6J mice; settings: JQ1 50 mg/kg i.p. or ABBV-744 20 mg/kg oral once daily
SARS-CoV-2 [8] = settings: mouse, in vivo; cited from earlier work
SARS-CoV-2 [9] = format: cell-based, SARS-CoV-2 isolate USA-WA1/2020; settings: p = 0.0004, three independent experiments in triplicate
SARS-CoV-2 [10] = format: cell-based, SARS-CoV-2 isolate USA-WA1/2020; settings: p = 0.0001, three independent experiments in duplicate
[11] = target: BRD4 second bromodomain BD2 (349-460), His-SUMO tag removed (UniProt O60885 349-460, 15N-labeled); assay: NMR titration
[12] = pan-BET inhibitors, no reference given

Row | Molecule | bromodomain specificity (BET proteins; [12]) | poly(I:C)-mediated induction of IFNB1 (A549 cells) | poly(I:C)-mediated induction of IL6 (A549 cells) | poly(I:C)-mediated induction of ISG15 (A549 cells) | IFNB1 expression (Calu3 cells [1]) | IL6 expression (Calu3 cells [1]) | ISG15 expression (Calu3 cells [1]) | CCL2 expression in lungs [3] | CXCL9 expression in lungs [3] | CXCL10 expression in lungs [3] | IL1a expression in lungs [3] | IL6 expression in lungs [3] | ISG15 expression in lungs [3] | RIG-I expression in lungs [3] | increase in infectious particle production in lungs (SARS-CoV-2 [4]) | immune cell infiltration in the lungs (SARS-CoV-2 [5]) | lung inflammation in healthy, uninfected mice [6] | immunohistochemical staining for SARS-CoV-2 N protein in lungs [7] | Kd [11] | also measured
1 | Cc1sc2c(c1C)C(c1ccc(Cl)cc1)=N[C@@H](CC(=O)NCCCCCCCCNC(=O)COc1cccc3c1C(=O)N(C1CCC(=O)NC1=O)C3=O)c1nnc(C)n1-2 (stereo partly shown) [dBET6] | disrupt BD1- and BD2-mediated interactions | dampened | dampened | dampened | suppressed | suppressed | suppressed |  |  |  |  |  |  |  |  |  |  |  |  | viability (Calu3 cells [2]): non-toxic; viability (A549-ACE2 cells): non-toxic
2 | Cc1sc2c(c1C)C(c1ccc(Cl)cc1)=N[C@@H](CC(=O)OC(C)(C)C)c1nnc(C)n1-2 [JQ1] | disrupt BD1- and BD2-mediated interactions | dampened | dampened | dampened | suppressed | suppressed | suppressed | significant decreases | significant decreases | significant decreases | significant decreases | significant decreases | significant decreases | significant decreases | 18 fold | decrease in immune cell infiltration | did not experience lung inflammation | increased |  | transcriptional activation of the antiviral response (influenza A): attenuates transcriptional activation of the antiviral response
3 | Cc1noc(C)c1-c1ccc2[nH]c(=O)n3c2c1OC[C@@H]3c1ccccn1 [INCB054329] |  |  |  |  |  |  |  |  |  |  |  |  |  |  |  |  |  |  |  | lung pathology (SARS-CoV-2 [8]): severe lung pathology; viral RNA in the lungs (SARS-CoV-2 [8]): significant viral RNA in the lungs
4 | CCNC(=O)c1cc2c(-c3cc(C(C)(C)O)ccc3Oc3c(C)cc(F)cc3C)cn(C)c(=O)c2[nH]1 [ABBV-744, N-Ethyl-4-[2-(4-fluoro-2,6-dimethyl-phenoxy)-5-(1-hydroxy-1-methyl-ethyl)phenyl]-6-methyl-7-oxo-1H-pyrrolo[2,3-c]pyridine-2-carboxamide] |  |  |  |  |  |  |  | significant decreases | significant decreases | significant decreases | significant decreases | significant decreases | significant decreases | significant decreases | 37 fold | decrease in immune cell infiltration | did not experience lung inflammation | increased |  | bromodomain specificity (BET proteins; ABBV-744, ref Sheppard et al., 2020): specifically targets BD2-mediated interactions; increase in SARS-CoV-2 viral RNA (SARS-CoV-2 [9]): 3 fold; increase in infectious particle production (SARS-CoV-2 [10]): 3 fold
5 | VYSRVK(Ac)NLNSS [SARS-CoV-2 E peptide, residues 58-68, acetylated at K63] |  |  |  |  |  |  |  |  |  |  |  |  |  |  |  |  |  |  | 170 ± 60 µM | 
6 | NVSLVK(Ac)PSFYV [SARS-CoV-2 E peptide, residues 48-58, acetylated at K53] |  |  |  |  |  |  |  |  |  |  |  |  |  |  |  |  |  |  | 610 ± 160 µM | 
